What was measured:
MEK1 = MEK1 (Homo sapiens (Human), UniProt Q02750); experiment: MEK Inhibition Assay-2 (Z′-LYTE biochemical assay); conditions: Z′-LYTE assay of Example 39; read-out: IC50 against MEK1
Protocol: MEK1 inhibitory activity of compounds were tested using the following procedure (protocol available at thermofisher.com/content/dam/LifeTech/migration/files/drug-discovery/pdfs.par.60256.file.dat/20130430%20ssbk %20customer %20protocol %20and %20assa y %20conditions.pdf). The Z′-LYTE biochemical assay (ThermoFisher) employs a fluorescence-based, coupled-enzyme format and is based on the differential sensitivity of phosphorylated and non-phosphorylated peptides to proteolytic cleavage.
Test compounds in 100% DMSO were screened in 1% DMSO (final) in the well. For 10 point titrations, 3-fold serial dilutions are conducted from the starting concentration of 30 μM.
After the 1 hour incubation, 5 μL of a 1:1024 dilution of Development Reagent A (available from Invitrogen, catalog no. PV3295) was added.
ATP solutions were diluted to a 4× working concentration in Kinase Buffer (50 mM HEPES pH 7.5, 0.01% BRIJ-35, 10 mM MgCl2, 1 mM EGTA). ATP Km apparent was previously determined using a Z′-LYTE assay. The Development Reagent was diluted in Development Buffer (available from Invitrogen, catalog no. P3127).
Assay Protocol: 2.5 μL of 4× test compound or 100 nL of 100× Test Compound plus 2.4 μL Kinase Buffer, 5 μL of the 2× Peptide/Kinase Mixture, 2.5 μL of 4×ATP Solution were added to the plates and placed on a shake plate for 30-seconds. The kinase reaction was allowed to proceed for 60-minute at room temperature, before 5 μL of Development Reagent Solution was added, and the mixture agitated for 30-seconds on a shake plate. The mixture was incubated for 60-minute at room temperature. Fluorescence was measured using a plate reader and the data were analyzed.
This control yielded 100% cleaved peptide in the Development Reaction. The 100% Phosphorylation Control, which consisted of a synthetically phosphorylated peptide of the same sequence as the peptide substrate, was designed to allow for the calculation of percent phosphorylation. This control yielded a very low percentage of cleaved peptide in the Development Reaction. The 0% Phosphorylation and 100% Phosphorylation Controls allow for the calculation of the percent phosphorylation achieved in a specific reaction well.
The minimum emission ratio in a screen was established by the 0% Inhibition Control, which contained active kinase. This control was designed to produce a 10-50% phosphorylated peptide in the Kinase Reaction. Cascade assays may produce up to 70% phosphorylated peptide.
A known inhibitor control standard curve, 10 point titration, was run for each individual kinase on the same plate as the kinase to ensure the kinase was inhibited within an expected IC50 range previously determined.
The following controls are prepared for each concentration of Test Compound assayed. […] The expected value for a non-interfering compound should be 100%. Any value outside of 90% to 110% was flagged. […] The expected value for a non-fluorescence compound should be 0%. Any value>20% was flagged.
The data in Table A was calculated. XLfit from IDBS was used. The dose response curve was curve fit to model number 205 (sigmoidal dose-response model).
Table 3 lists the MEK1 inhibition assay results of selected compounds according to the above procedure.

A375 cells = experiment: A375 (BRAF) GI50 cell-based assay (Cell Titer-Glo); conditions: Homo sapiens, A-375, 72 hours, read-out: Assay 2: A375 (BRAF) GI50
Protocol: Alternatively, the following procedure can be used to measure cell-based activity. Test compounds were dissolved in DMSO in 10 mM stock. Cell Titer-Glo® 2.0 Luminescent cell viability assay reagent was purchased from Promega (Madison, Wis.). A375 and HCT116 cell lines were purchased from American Type Culture Collection (Manassas, Va.). For A375 cells, cell culture media was DMEM+10% FBS. For HCT116 cells, cell culture media was McCoy's 5A+10% FBS. All media were supplemented with 100 μg/mL of penicillin, and 100 μg/mL of streptomycin. Cultures were maintained at 37° C. in a humidified atmosphere of 5% CO2 and 95% air.
Test compounds were diluted in DMSO solution with 10-dose and 3-fold dilutions in a source plate starting at 10 mM. 25 nL of each test compound was delivered from the source plate to each well of the 384-well cell culture plates (T=Final) by Echo 550. 25 μL of culture medium containing 2000 of A375 or HCT116 cells was added to each of the wells in duplicates of the cell culture plates (T=0 and T=Final). 25 μL of Cell Titer Glo 2.0 reagent was added to each well of cell culture plate (T=0). The contents were mixed on an orbital shaker for 2 min and incubated at room temperature for 15 min to stabilize luminescent signal. Luminescence was recorded by Envision 2104 Multilabel Reader (PerkinElmer, Santa Clara, Calif.). The number of viable cells in culture was determined based on quantitation of the ATP present in each culture well. The cells in cell culture plate (T=Final) were incubated with the compounds at 37° C., 5% CO2 for 72 hours. 25 μL of Cell Titer Glo 2.0 reagent was added to each well. The contents were mixed on an orbital shaker for 2 min and incubated at room temperature for 15 min to stabilize luminescent signal. Luminescence was recorded by Envision 2104 Multilabel Reader (PerkinElmer, Santa Clara, Calif.). The number of viable cells in culture was determined based on quantitation of the ATP present in each culture well. The GI50 curves were plotted using the GraphPad Prism 4 program based on a sigmoidal dose-response equation Y=Bottom+(Top-Bottom)/(1+10^((Log EC50−X)*HillSlope)). All parameters in the equation were calculated by GraphPad Prism 4 program. […] Accordingly, GI50 is the value of 10^X, where X was calculated by the Curve Fitting Equation when Y=50 using Excel.
Assay 2 is the A375 (BRAF) GI50 (nM) cell-based assay as described in Example 41.

MEK1, sequence (Q02750 whole entry): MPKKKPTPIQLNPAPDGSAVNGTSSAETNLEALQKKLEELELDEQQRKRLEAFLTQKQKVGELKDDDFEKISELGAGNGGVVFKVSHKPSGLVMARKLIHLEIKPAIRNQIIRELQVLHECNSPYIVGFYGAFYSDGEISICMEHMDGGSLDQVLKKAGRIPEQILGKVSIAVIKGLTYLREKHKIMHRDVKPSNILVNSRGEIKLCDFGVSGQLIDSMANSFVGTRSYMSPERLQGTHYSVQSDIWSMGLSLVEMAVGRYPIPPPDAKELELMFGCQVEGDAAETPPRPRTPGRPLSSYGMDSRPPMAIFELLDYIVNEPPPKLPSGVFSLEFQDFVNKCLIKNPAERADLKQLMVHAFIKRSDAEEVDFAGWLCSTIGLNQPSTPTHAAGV

IC50 (MEK1) [nM]	GI50 (A375 cells) [nM]	SMILES
≤ 150	≤ 500	N#Cc1ccc(C(=O)NOCCO)c(Nc2ccc(I)cc2F)c1F [Compound 1.030, 4-cyano-3-fluoro-2-((2-fluoro-4-iodophenyl)amino)-N-(2-hydroxyethoxy) benzamide]
≤ 150	≤ 500	N#Cc1ccc(C(=O)NOCCO)c(Nc2ccc(I)cc2F)c1 [Compound 1.010]
≤ 150	≤ 500	N#Cc1ccc(C(=O)NOCC2CC2)c(Nc2ccc(I)cc2F)c1F [Compound 1.031]
